In PMC6017605, “In Silico Discovery of a Substituted 6-Methoxy-quinaldine with Leishmanicidal Activity in Leishmania infantum” (Molecules, 2018):

Molecular target: T1, NDH-2 from S. aureus (SaNDH2, type 2 NADH:quinone oxidoreductase) (Staphylococcus aureus, UniProt Q2FZV7)
T1 construct: gene SAOUHSC_00878; recombinant NDH-2
Experiment: steady-state NADH oxidation assay at […] nm with DMN as electron acceptor, […] enzyme
Format: biochemical

T1 sequence (Q2FZV7 whole entry): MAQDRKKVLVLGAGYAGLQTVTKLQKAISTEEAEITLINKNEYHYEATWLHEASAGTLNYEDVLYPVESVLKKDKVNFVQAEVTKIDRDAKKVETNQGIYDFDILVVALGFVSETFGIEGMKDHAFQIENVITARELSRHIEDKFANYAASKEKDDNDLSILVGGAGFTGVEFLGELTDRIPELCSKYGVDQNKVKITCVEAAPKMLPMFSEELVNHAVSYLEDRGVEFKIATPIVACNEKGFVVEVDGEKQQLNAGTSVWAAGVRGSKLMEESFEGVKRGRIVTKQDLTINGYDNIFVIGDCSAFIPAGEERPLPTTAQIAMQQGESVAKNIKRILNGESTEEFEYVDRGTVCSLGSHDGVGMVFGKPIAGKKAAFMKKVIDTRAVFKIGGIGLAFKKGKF

For `COc1ccc2nc(C)ccc2c1` [compound 15], which Ki is on record?
Its Ki is 8.9 ± 1 µM.
